Publication PMC6680510, “Benzotriazine Di-Oxide Prodrugs for Exploiting Hypoxia and Low Extracellular pH in Tumors” (Molecules, 2019)
Several values for one entry are separate records, joined by “and”; a condition that tells them apart may be missing. Equal entries are not always repeated.

Legend:
SiHa cells [1] = experiment: Metabolism and uptake of ester 4b in anoxic single cell suspensions; assay type: in vitro ADME; conditions: anoxic SiHa suspensions after addition of 4b (150 μM), at 30 min
Source text: If the anionic sidechain of the BTO acids results in low intracellular concentrations, with reductive metabolism occurring largely at the cell surface, the corresponding esters would be expected to provide improved delivery to the intracellular compartment (consistent with their higher cytotoxic potencies, as noted in Section 2.5). To test this, we compared the metabolism of ester 4b (Figure 7A) with its corresponding acid 4a (Figure 7B) by monitoring extracellular concentrations in anoxic SiHa suspensions. The rates of metabolism of both compounds were unaffected by pHe, consistent with the results for 4a in Figure 5B. The ester was metabolized more rapidly than the acid, with only a trace of acid 4a detected transiently as an extracellular metabolite (Figure 7A). The major metabolites were the less polar 1-oxide, 15a, and the 1-oxide of the ester, 16a. In separate experiments with higher initial concentrations of 4b, 15a was again the main extracellular metabolite (Figure 7C, left). […] Compound 4b itself was not detected in the intracellular samples, presumably reflecting a lack of retention in cells and the very low intracellular volume, which will compromise analytical sensitivity (only 2 × 10^6 cells were collected for each analysis in this experiment).
Figure 7 Metabolism of BTO ester 4b and the corresponding acid 4a by anoxic SiHa single cell suspensions (2 × 10^6 cells/mL). (A) Extracellular concentrations following the addition of 4b (50 μM). (B) Extracellular concentrations following the addition of 4a (50 μM). (C) Extracellular (left) and intracellular (right) concentrations following the addition of 4b (150 μM). Values are means and errors are SEM for 3 replicate cultures.

SiHa and SiHa/POR cells = experiment: IC50 in SiHa versus SiHa/POR cultures under anoxia; assay type: cell-based; conditions: 4 h under anoxia, pHe 7.4
Method: The lack of effect of POR over-expression on the reductive metabolism of the BTO acids in intact cells led us to compare the cytotoxicities of SN30000 (2), 4a, and 7a in SiHa/POR, and the parental line, under anoxia (Figure 6).
Drug exposure was for 4 h under anoxia, at pHe 7.4, with regrowth under aerobic conditions for 5 days before staining with SRB. Values are means and SEM for the two experiments, each with triplicate cultures at each drug concentration. TEXT PRINTED IN THE PICTURE: Cmpd 2: Ratio 6.75 ± 0.20 | Cmpd 4a: Ratio 3.40 ± 0.22 | Cmpd 7a: Ratio 2.67 ± 0.46

SiHa cells [2] = experiment: Cellular uptake in stirred aerobic single cell suspensions (HPLC, 3H-mannitol correction)
Method: In these experiments, cell pellets were collected by centrifugation and ^3H-mannitol was used as a cell-excluded marker to enable correction for the entrapped extracellular medium.
Log-phase cultures were dissociated with trypsin/EDTA, followed by the addition of the medium with DNAase I (Sigma DN-25) at 100 μg/mL for 5 min at 37 °C to minimize clumping. The cell pellets were collected by centrifugation and resuspended in αMEM with 5% FBS at pH 7.4 or 6.5 to 2 × 10^6 cells/mL. Samples (12 mL) were equilibrated with magnetic stirring at 37 °C under flowing humidified 5% CO2/air or N2 (50–100 mL/min), as previously described [86]. After equilibration for 60 min, the compounds were added in 50 μL of DMSO. The samples (5 mL) were withdrawn 5 and 60 min later, where the cell pellets were then collected by centrifugation and 4 mL of the supernatant was discarded. The pellets were resuspended in the remaining 1 mL, transferred to microcentrifuge tubes containing 7 μL ^3H-mannitol (740 GBq/mmol, American Radiolabeled Chemicals Inc., St. Louis, MO) as an extracellular marker, and then centrifuged (11,000g × 30s). The supernatant was removed and frozen at −80 °C (extracellular samples) and the tubes were centrifuged again, and any remaining medium was carefully removed. Ice-cold MeOH (80 μL) was added to the pellets which were disrupted by pipetting and stored at −80 °C (intracellular samples). When these were thawed for HPLC analysis (Section 4.12), the volume of extracellular water trapped in the pellets was determined by the scintillation counting (PerkinElmer Tri-Carb B2910TR Liquid Scintillation) of 25 μL of each extracellular and intracellular sample in 3 mL of Emulsifier-Safe™ scintillation cocktail (PerkinElmer). The extracellular volume in each intracellular sample was used to correct the intracellular drug concentration as previously described [87].
The samples were analyzed using an Agilent 1200 HPLC with a diode array absorbance detector and autosampler maintained at 4 °C (Agilent Technologies). The frozen samples were thawed, then centrifuged (11,000g × 5 min), and then extracellular samples were injected directly (typically 20 μL), while for the intracellular samples 30 μL was mixed 1:1 with αMEM and 50 μL was injected. […] All calibration curves were linear (R^2 > 0.999). The column was an Agilent ZORBAX Eclipse (XDB-C18, 5u, 2.1 × 150 mm, Agilent Technologies) with a flow rate of 0.4 mL/min. For SN30000 (2), the mobile phase was a mixture of 80% MeCN/water v/v (A), and a 45 mM formate buffer at a pH 4.5, eluting with a linear gradient of 5–100% A over 18 min. The same method was used for the BTO acids, except for 4a, where the aqueous mobile phase pH was reduced to 3.5.
Values are mean and SEM for 3 replicates. ND: Not detected.

SMILES: O=C(O)CCc1n[n+]([O-])c2ccccc2[n+]1[O-] [Compound 4a, 3-(2-Carboxyethyl)benzo[e][1,2,4]triazine 1,4-Dioxide]
- Maximum intracellular concentration (SiHa cells [1]): 4.1 mM
- IC50 ratio SiHa / SiHa/POR (fold lower IC50 in POR cell line) (SiHa and SiHa/POR cells): 3.40 ± 0.22 and 3.4
- Uptake (Ci/Ce) at 4 °C relative to 37 °C (SiHa cells [2]; SiHa cell suspensions, data not shown): undetectable
- Ci/Ce, pHe 6.5 Obs 5 min (SiHa cells [2]; aerobic SiHa suspensions, pHe 6.5, 5 min): <0.1
- Ci/Ce, pHe 6.5 Obs 60 min (SiHa cells [2]; aerobic SiHa suspensions, pHe 6.5, 60 min): <0.1
- Ci/Ce, pHe 7.4 Obs 5 min (SiHa cells [2]; aerobic SiHa suspensions, pHe 7.4, 5 min): <0.1
- Ci/Ce, pHe 7.4 Obs 60 min (SiHa cells [2]; aerobic SiHa suspensions, pHe 7.4, 60 min): <0.1
